The record followed here is patent US20220233553A1, “CELLULAR SENESCENCE ACTIVATING COMPOUNDS” (UNIVERSIDAD NACIONAL AUTONOMA DE MEXICO, priority 2019, published 2022).

Data set [1] relates to HCT-15. Briefly: Cytotoxicity against colon cancer cell lines, 24, 48 and 72 hours. The data set is classed as cell-based.
In data set [2] the test system is HCT-116. The description is as above. Format: cell-based.
The subject of data set [3] is SW-620. Described as above. Format: cell-based.
Data set [4] has as its system HCT-116 cancer cells. Briefly: Xenotransplantation study, antitumor activity. The data set is classed as in vivo, mice. As to conditions: for reduction in tumor size: vs untreated mouse.
From the text: The arrows indicate the days of compound administration, in a regimen of 1 administration per week for 3 weeks, each point represents the average and SD of 6 mice.
The arrows indicate the days of administration, with 3 administrations per week for 3 weeks, each point representing the mean±SD of 6 mice.
The nature of data set [5]: Blood parameters of the treated mice.
For data set [6], the system named is HCT-15 (colon). Nature of the data set: Effect on cell lines (CI50, % growth inhibition). Format: cell-based. As to conditions: Homo sapiens; for IC50: HCT-15, read-out: CI50 ± EE, μM HCT-15 (colon).
Data set [7] has as its system K562 (leukemia). Nature of the data set: Effect on cell lines (CI50, % growth inhibition). Format: cell-based. The conditions noted are these: Homo sapiens; for IC50: K562, read-out: CI50 ± EE, μM K562 (leukemia).
The test system of data set [8] is PC-3 (prostate). Nature of the data set: Effect on cell lines (CI50, % growth inhibition). The data set is classed as cell-based. The conditions noted are these: for IC50: Homo sapiens, PC-3, read-out: CI50 ± EE, μM PC-3 (prostate).
The subject of data set [9] is U251 (CNS). Briefly: Effect on cell lines (CI50, % growth inhibition). The data set is classed as cell-based. As to conditions: Homo sapiens; for IC50: U-251, read-out: CI50 ± EE, μM U251 (CNS).
For data set [10], the system named is HCT-116 line. Nature of the data set: Apoptosis induction, double labeling with annexin V and IP. As to conditions: 30 μM, 72 hours of treatment. The data set is classed as cell-based. The source says:
FIG. 2. Results of the apoptosis induction using a double labeling with annexin V and IP, due to the effect of compound In.

A short description of data set [11]: Toxicity in nu/nu mice (LD50, weight, physical or behavioral changes). The data set is classed as in vivo. The text has this:
FIG. 7. […] Each point in the graphs represents the mean±SD of the weight of 3 mice per experimental group.

Data set [12] has as its system β-galactosidase enzyme. Nature of the data set: β-galactosidase activity (cellular senescence) in colon cancer cell lines. The data set is classed as cell-based. The conditions noted are these: 72 hours, 30 μM, colon cancer cell lines HCT-116 and HCT-15. Here is the method: FIG. 12. A) β-galactosidase activity in HCT-116 cells, B) β-galactosidase activity in HCT-15 cells, C) Cell control of the HCT-116 cell line, D) HCT-116 cells treated with In […] for 72 hours.
Now, as already mentioned above, the mechanism by which In exerts an antitumor effect without generating cytotoxicity on healthy cells is through the induction of cellular senescence.

Data set [13] relates to lung (SKUL). Nature of the data set: % growth inhibition in cell lines. The data set is classed as cell-based.
The test system of data set [14] is breast (MCF-7). Briefly: % growth inhibition in cell lines. The conditions noted are these: Homo sapiens, MCF7. The data set is classed as cell-based.
Data set [15] has as its system proliferating cell nuclear antigen (PCNA). Nature of the data set: PCNA immunolabelling of xenotransplanted tumor tissue. As to conditions: groups treated at different doses; control group 54.81%±15.63.
The test system of data set [16] is HCT-116 cell xenotransplantation. Briefly: Cell morphology in tumor tissues (hematoxylin-eosin, DAPI). As to conditions: tumor tissues of treated mice vs control group.
[17] abbreviates: 2 mg/Kg, administration 3 (times a week).

A value given as a limit tells only on which side of the number the result lay.

As to `N.N.[Cl][Pt][Cl]` [Cisplatin], the IC50 in data set [1] (HCT-15, incubation 24 h) was 12.5 ± 0.5 µM; in [1] (HCT-15, incubation 48 h), 10.7 ± 0.6 µM; in data set [1] (HCT-15, incubation 72 h), 4.68 ± 0.3 µM; in [2] (HCT-116, incubation 24 h), 10.8 ± 0.7 µM; in data set [2] (HCT-116, incubation 48 h), 8.37 ± 0.5 µM; in data set [2] (HCT-116, incubation 72 h) it was 3.09 ± 0.3 µM. In addition, the IC50 in [3] (SW-620, incubation 24 h) is 18 ± 0.5 µM; in data set [3] (SW-620, incubation 48 h), 13.9 ± 0.4 µM; in [3] (SW-620, incubation 72 h), 9.09 ± 0.3 µM. Further, in data set [4] (2 mg/kg three times a week for 21 days), the “tumor reduction compared with In 250 mg/kg” value is “equivalent”. Moreover, the Alanine aminotransferase in data set [5] (setting [17]) amounted to 75.21 UL; in data set [5] (4 mg/Kg, once a week), 62.89 UL. The Aspartate aminotransferase in data set [5] (setting [17]) came to 197.32 UL; in data set [5] (4 mg/Kg, once a week), 151.25 UL. The Creatinine in data set [5] (setting [17]) was determined as 43.3 μM/l; in data set [5] (4 mg/Kg, once a week), 29.06 μM/l. In addition, the Erythrocytes in data set [5] (setting [17]) came out at 7.14e+12 L⁻¹; in [5] (4 mg/Kg, once a week), 7.36e+12 L⁻¹. In addition, the Glucose in data set [5] (setting [17]) was found to be 7.80 mmol/L; in data set [5] (4 mg/Kg, once a week), 8.56 mmol/L. Further, the Hemoglobin amounted to 113 g/L in data set [5] (setting [17]) and 115 g/L in [5] (4 mg/Kg, once a week). For the same compound, the Leukocytes in [5] (setting [17]) is 1.6e+09 L; in data set [5] (4 mg/Kg, once a week) it was 2.1e+09 L; in [5] (4 mg/kg once a week and mg/kg three times a week for 3 weeks), “decreased leukocytes”. In addition, the Lymphocytes in [5] (setting [17]) was 0.52 × × 10^9/l; in data set [5] (4 mg/Kg, once a week), 5.2e+08 L⁻¹. Further, the Urea in data set [5] (setting [17]) worked out at 9.06 mmol/L; in data set [5] (4 mg/Kg, once a week) it was 7.57 mmol/L.
For `CC(=O)O[C@H]1C[C@@]2(C)C3CCC4C(C)(C)C(=O)C=C[C@@]45C[C@@]35CC[C@]2(C)C1[C@]1(C)CC[C@H](C(C)(C)OC(C)=O)O1` (some centres unmarked) [Ic], the IC50 is over 100 µM in data set [6], over 100 µM in [7], 13.9 ± 0.324 µM in [8] and 58.4 ± 4 µM in data set [9].
For `CC(=O)O[C@H]1C[C@@]2(C)C3CCC4C(C)(C)/C(=N/O)CC[C@@]45C[C@@]35CC[C@]2(C)C1[C@]1(C)CC[C@H](C(C)(C)OC(C)=O)O1` (some centres unmarked) [Ig], the IC50 was found to be 28.9 ± 3.17 µM in data set [6], 15.2 ± 2.35 µM in data set [7], 12.6 ± 2.42 µM in data set [8] and 21.4 ± 1.67 µM in data set [9].
As for `CC1(C)c2oncc2C[C@]23C[C@]24CC[C@]2(C)C([C@]5(C)CC[C@H](C(C)(C)O)O5)[C@@H](O)C[C@@]2(C)C4CCC13` (some centres unmarked) [Ii], the IC50 in [6] was 10.2 ± 0.77 µM; in [7], 11 ± 1.05 µM; in [8], 13 ± 3.56 µM; in data set [9], 11.3 ± 1.55 µM.
Turning to `CC1(C)C(=O)CC[C@]23C[C@]24CC[C@]2(C)C([C@]5(C)CC[C@H](C(C)(C)O)O5)[C@@H](O)C[C@@]2(C)C4CCC13` (some centres unmarked) [In, Argentantine A], the IC50 in [1] (Homo sapiens, HCT-15, incubation 24 h) was 95.43 ± 0.6 µM; in data set [1] (Homo sapiens, HCT-15, incubation 48 h), 59.7 ± 1.3 µM; in [1] (Homo sapiens, HCT-15, incubation 72 h), 44.8 ± 0.9 µM; in [2] (Homo sapiens, HCT-116, incubation 24 h) it was 87.83 ± 0.7 µM; in [2] (Homo sapiens, HCT-116, incubation 48 h), 53.33 ± 0.2 µM; in data set [2] (Homo sapiens, HCT-116, incubation 72 h), 43.17 ± 0.4 µM. For the same compound, the IC50 in data set [3] (Homo sapiens, SW-620, incubation 24 h) was 115.6 ± 0.4 µM; in data set [3] (Homo sapiens, SW-620, incubation 48 h), 72.46 ± 0.2 µM; in data set [3] (Homo sapiens, SW-620, incubation 72 h), 61.3 ± 1.2 µM; in data set [6], 31.7 ± 1.1 µM; in [7] it was 38.6 ± 4.47 µM; in data set [8], 20.2 ± 3.44 µM. Besides, the IC50 in [9] amounted to 27.3 ± 1 µM. In [10], the apoptosis induction entry is “only induced apoptosis in the HCT-116 line”. The “reduction in tumor size” value in [4] (250 mg/kg once a week for 21 days) was found to be 49.1%; in [4] (500 mg/kg once a week for 21 days) it was 48.8%. Moreover, the “reduction of the tumor” value in data set [4] (250 mg/kg three times a week for 21 days, vs untreated mice) was found to be 78.1%. For the same compound, the “physical or behavioral changes” value in data set [11] (500 mg/kg once a week and 250 mg/kg three times a week for three weeks) is listed as “no physical or behavioral changes”. In [11] (250 and 500 mg/kg), the weight loss entry is given as “does not cause weight loss”. Also, the toxicity entry in data set [11] (500, 250 or 125 mg/kg once a week for 3 weeks, nu/nu mice) is “does not show toxicity”. For the same compound, the LD50 (as a rule, the dose at which mortality reaches 50%) at 3 weeks in data set [11] (mouse, in vivo, intraperitoneal, nu/nu mice, read-out: mean lethal dose (LD50)) was over 500 mg/kg. Further, the β-galactosidase enzyme activity entry in data set [12] was “observed predominantly in cells of the HCT-116 line”. The inhibition – broadly, the percentage by which the read-out fell short of the control – at 50 µM in data set [6] (50 μM, HCT-15) was 31.7%; in data set [7] (50 μM, K562), 38.6%; in [8] (50 μM, PC-3) it was 20.2%; in [9] (U-251, 50 μM, U251), 27.3%; in data set [13] it was 0%; in data set [14], 26.6%. The “quantification of PCNA (percentage of PCNA positive cells)” value in data set [15] is 10-20%. The “fragmented nuclei (DAPI labeling) as signal of cell death” value in data set [16] was “no fragmented nuclei”.
